In US10206388B2, “Formulation component” (SYNGENTA LIMITED, priority 2011, dated 2019):

What was measured:
Type in all cases: in vivo
Tetranychus urticae = assay: Two spotted spider mite mortality on French bean, abamectin with aromatic ester adjuvants; settings: for % mortality of Tetranychus urticae: adjuvant 0.1% v/v where present, French bean, 10 days, larva and adults averaged
Experimental: The efficacy of the benzoic acid esters Finsolv® SB (isostearyl benzoate) and Finsolv® TN (C12-C15 alkyl benzoate) and the aromatic ester ethoxylate Dermol®25-3B (C12-C15 alkyl ethoxy (3) benzoate) as adjuvants in compositions containing abamectin was tested and compared to the efficacy of abamectin compositions which lack this type of adjuvant. The adjuvants were present at 0.1% v/v in the abamectin compositions. The surfactants polyoxyethylene sorbitan monooleate and an ethoxylated castor oil were also present in all the abamectin compositions tested.
Two week old French bean (Phaseolus vulgaris) plants were infested with a mixed population of two spotted spider mite Tetranychus urticae. One day after infestation the plants were treated with the test compositions, with a track sprayer from the top with a rate of 200 liters per hectare. Plants were incubated in the greenhouse for 10 days and the evaluation was done on mortality against Larva and Adults, just on the lower side (untreated) of the leaves. Each experiment was replicated twice and the results were averaged. The mortality against Larva and Adults was then averaged.

[1] = tested on: Abutilon theophrasti (ABUTH); assay: Glasshouse weed test, nicosulfuron with adjuvants; settings: mean over two rates
Experimental: (§1) The aromatic ester Finsolv® TN (C12-C15 alkyl benzoate) was tested in a glasshouse against four weed species using the herbicide nicosulfuron. An agrochemical composition was prepared containing 0.2% v/v of the adjuvant in a track sprayer, and was applied at a volume of 200 liters per hectare. Nicosulfuron was applied at either 30 or 60 grams of pesticide per hectare on each of the weed species. The weed species and their growth stage at spraying were Abutilon theophrasti (ABUTH; growth stage 13), Chenopodium album (CHEAL; growth stage 14), Digitaria sanguinalis (DIGSA; growth stage 13), and Setaria viridis (SETVI; growth stage 13).
(§2) Each spray test replicated three times. The efficacy of the herbicide was assessed visually and expressed as a percentage of the leaf area killed. Samples were assessed at time periods of 7, 14 and 20 days following application. The results shown in Table 6 below are mean averages over the two rates of nicosulfuron, three replicates and the three assessment timings, and are compared to the efficacy of nicosulfuron in the absence of an adjuvant, and nicosulfuron in the presence of the commercially available tank-mix adjuvant, Atplus411F®.
(§3) A second experiment was conducted to assess the efficacy of Finsolv® TN as an adjuvant in compositions of nicosulfuron. This was carried out as outlined above, with the following change: samples were assessed at 14 and 20 days post application.
(§4) The results shown in Table 7 below are mean averages over the two rates of nicosulfuron, three replicates and the two assessment timings, and are compared to the efficacy of nicosulfuron in the absence of an adjuvant, and nicosulfuron in the presence of the commercially available tank-mix adjuvant, Atplus411F®.
(§5) The aromatic esters Benzoate 1 (see Example 9), Benzoflex 354 (2,2,4-trimethyl-1,3-pentanediol dibenzoate) and Finsolv® SB (stearyl benzoate) were tested in a glasshouse against four weed species using the herbicide nicosulfuron. Nicosulfuron was applied at either 30 or 60 grams of pesticide per hectare on each of the weed species. The weed species and their growth stage at spraying were Abutilon theophrasti (ABUTH; growth stage 13), Chenopodium album (CHEAL; growth stage 14), Digitaria sanguinalis (DIGSA; growth stage 13), and Setaria viridis (SETVI; growth stage 13).
as §2, with “of” for “of 7,”, “Table 14” for “Table 6”, “the two” for “the three”

Setaria viridis (SETVI) = assay: Glasshouse weed test, nicosulfuron with adjuvants; settings: mean over two rates
Experimental: as §1, §2, §3, §4, §5
as §2, with “of” for “of 7,”, “Table 14” for “Table 6”, “the two” for “the three”

[2] = tested on: Digitaria sanguinalis (DIGSA); assay: Glasshouse weed test, nicosulfuron with adjuvants; settings: mean over two rates
Experimental: as §1, §2, §3, §4, §5
as §2, with “of” for “of 7,”, “Table 14” for “Table 6”, “the two” for “the three”

[3] = tested on: Chenopodium album (CHEAL); assay: Glasshouse weed test, nicosulfuron with adjuvants; settings: mean over two rates
Experimental: as §1, §2, §3, §4, §5
as §2, with “of” for “of 7,”, “Table 14” for “Table 6”, “the two” for “the three”

[4] = tested on: four weed species (ABUTH, CHEAL, DIGSA, SETVI); assay: Glasshouse weed test, nicosulfuron with adjuvants, mean across species; settings: mean over two rates
Experimental: as §1, §2, §3, §4, §5
as §2, with “of” for “of 7,”, “Table 14” for “Table 6”, “the two” for “the three”
An agrochemical composition was prepared containing 0.2% v/v of the adjuvant in a track sprayer and was applied at a volume of 200 liters per hectare. The adjuvant oils were emulsified using a small amount of the surfactant Pluronic® PE 10500, which was present in the composition at a concentration of 0.02% v/v. Nicosulfuron was applied at either 30 or 60 grams of pesticide per hectare on each of the weed species. The weed species and their growth stage at spraying were Abutilon theophrasti (ABUTH; growth stage 13), Chenopodium album (CHEAL; growth stage 14-15), Digitaria sanguinalis (DIGSA; growth stage 14), and Setaria viridis (SETVI; growth stage 13-14).
Each spray test replicated three times. The efficacy of the herbicide was assessed visually and expressed as a percentage of the leaf area killed. Samples were assessed at time periods of 14 and 21 days following application. […]

[5] = Table 6, Example 5: nicosulfuron 30 or 60 g/ha, adjuvant 0.2% v/v, three replicates, 7, 14 and 20 days
[6] = Table 7, Example 5 second experiment: nicosulfuron 30 or 60 g/ha, adjuvant 0.2% v/v, three replicates, 14 and 20 days
[7] = Table 14, Example 10: nicosulfuron 30 or 60 g/ha, three replicates, 14 and 20 days

Compound: CC(C)CCCCCCCCCCCCCCCOC(=O)c1ccccc1 [Finsolv® SB, Isostearyl benzoate]
- Mortality of Tetranychus urticae (Tetranychus urticae; aromatic ester composition 0.1% v/v without abamectin present): no mortality

Compound: COc1cc(OC)nc(NC(=O)NS(=O)(=O)c2ncccc2C(=O)N(C)C)n1 [Nicosulfuron, nicosulfuron]
- Mean percentage kill ABUTH [1, 5]: 19.4 B %
- Mean percentage kill ABUTH [1, 6]: 29.2 B %
- Mean percentage kill ABUTH [1, 7]: 56.7 C %
- Mean percentage kill SETVI (Setaria viridis (SETVI); [5]): 33.3 C %
- Mean percentage kill SETVI (Setaria viridis (SETVI); [6]): 61.3 C %
- Mean percentage kill SETVI (Setaria viridis (SETVI); [7]): 81.0 B %
- Mean percentage kill DIGSA [2, 5]: 1.1 B %
- Mean percentage kill DIGSA [2, 6]: 0.0 B %
- Mean percentage kill DIGSA [2, 7]: 56.3 B %
- Mean percentage kill CHEAL [3, 5]: 26.7 B %
- Mean percentage kill CHEAL [3, 6]: 25.8 B %
- Mean percentage kill CHEAL [3, 7]: 44.6 B %
- Mean percentage kill, Mean across species [4, 5]: 20.1 B %
- Mean percentage kill, Mean across species [4, 6]: 29.1 B %
- Mean percentage kill, Mean across species [4, 7]: 59.6 B %
- Mean percentage kill, Mean across species ([4]; Table 19, Example 15: nicosulfuron 30 or 60 g/ha, adjuvant 0.2% v/v emulsified with Pluronic PE 10500 0.02% v/v, three replicates, 14 and 21 days): 29.8B %
- Mean percentage kill, Mean across species ([4]; Table 23, Example 19: absence of an adjuvant, nicosulfuron 30 or 60 g/ha, three replicates, 14 and 21 days): 40.1%
- Mean percentage kill, Mean across species ([4]; Table 33, Example 33: nicosulfuron 30 or 60 g/ha, three replicates, 14 and 21 days): 40.1B %

Compound: abamectin
- % mortality of Tetranychus urticae (Tetranychus urticae; abamectin 0.2 ppm): 0%
- % mortality of Tetranychus urticae (Tetranychus urticae; abamectin 0.4 ppm): 0%
- % mortality of Tetranychus urticae (Tetranychus urticae; abamectin 0.8 ppm): 27%
- % mortality of Tetranychus urticae (Tetranychus urticae; abamectin 1.5 ppm): 70%
- % mortality of Tetranychus urticae (Tetranychus urticae; abamectin 3 ppm, lower untreated leaf side): 95%
